According to PubChem BioAssay (NCI):
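At the GI50, growth is halved. TGI is the concentration that stops growth completely.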

Assays:
Assay in all cases: inhibition of tumour cell growth, NCI panel, 384-well format
SNB-19 CNS = system: SNB-19 CNS
A498 renal = system: A498 renal
NCI-H23 lung = system: NCI-H23 lung
MALME-3M melanoma = system: MALME-3M melanoma
LOX IMVI melanoma = system: LOX IMVI melanoma
HCC-2998 colon = system: HCC-2998 colon
SK-MEL-28 melanoma = system: SK-MEL-28 melanoma
COLO 205 colon = system: COLO 205 colon
OVCAR-8 ovarian = system: OVCAR-8 ovarian
HCT-15 colon = system: HCT-15 colon
BT-549 breast = system: BT-549 breast
SF-268 CNS = system: SF-268 CNS
RPMI-8226 leukemia = system: RPMI-8226 leukemia
RXF 393 renal = system: RXF 393 renal
SW-620 colon = system: SW-620 colon
MCF7 breast = system: MCF7 breast
U251 glioblastoma = system: U251 glioblastoma
HL-60(TB) leukemia = system: HL-60(TB) leukemia
T-47D breast = system: T-47D breast
KM12 colon = system: KM12 colon
NCI-H322M lung = system: NCI-H322M lung
DU-145 prostate = system: DU-145 prostate
HCT-116 colon = system: HCT-116 colon
M14 melanoma = system: M14 melanoma
NCI-H226 lung = system: NCI-H226 lung
HOP-62 NSCLC = system: HOP-62 NSCLC
NCI/ADR-RES ovarian = system: NCI/ADR-RES ovarian
A549 NSCLC = system: A549 NSCLC
K-562 leukemia = system: K-562 leukemia

COc1cccc2c1C(=N)c1c(O)c3c(c(O)c1C2=O)C[C@@](O)(C(C)=O)C[C@@H]3O[C@H]1C[C@H](N)[C@H](O)[C@H](C)O1
TGI (SNB-19 CNS): 376 nM
GI50 (A498 renal): 91.9 nM
TGI (A498 renal): 1070 nM
GI50 (NCI-H23 lung): 47.9 nM
TGI (NCI-H23 lung): 200 nM
GI50 (MALME-3M melanoma): 220 nM
TGI (MALME-3M melanoma): 953 nM
GI50 (LOX IMVI melanoma): 144 nM
TGI (LOX IMVI melanoma): 338 nM
GI50 (HCC-2998 colon): 114 nM
TGI (HCC-2998 colon): 272 nM
GI50 (SK-MEL-28 melanoma): 131 nM
TGI (SK-MEL-28 melanoma): 468 nM
GI50 (COLO 205 colon): 44.8 nM
TGI (COLO 205 colon): 231 nM
GI50 (OVCAR-8 ovarian): 42.9 nM
TGI (OVCAR-8 ovarian): 745 nM
GI50 (HCT-15 colon): 417 nM
TGI (HCT-15 colon): 1560 nM
GI50 (BT-549 breast): 116 nM
TGI (BT-549 breast): 335 nM
GI50 (SF-268 CNS): 59.9 nM
TGI (SF-268 CNS): 262 nM
GI50 (RPMI-8226 leukemia): < 10 nM
TGI (RPMI-8226 leukemia): 22.3 nM
GI50 (RXF 393 renal): 41.7 nM
TGI (RXF 393 renal): 147 nM
GI50 (SW-620 colon): 42.8 nM
TGI (SW-620 colon): 281 nM
GI50 (MCF7 breast): 61.2 nM
TGI (MCF7 breast): 1360 nM
GI50 (U251 glioblastoma): 50.9 nM
TGI (U251 glioblastoma): 187 nM
GI50 (HL-60(TB) leukemia): < 10 nM
TGI (HL-60(TB) leukemia): < 10 nM
GI50 (T-47D breast): 61.1 nM
TGI (T-47D breast): 451 nM
GI50 (KM12 colon): 66 nM
TGI (KM12 colon): 206 nM
GI50 (NCI-H322M lung): 637 nM
TGI (NCI-H322M lung): 2080 nM
GI50 (DU-145 prostate): 108 nM
TGI (DU-145 prostate): 399 nM
GI50 (HCT-116 colon): 46.7 nM
TGI (HCT-116 colon): 1010 nM
GI50 (M14 melanoma): 73.6 nM
TGI (M14 melanoma): 445 nM
GI50 (NCI-H226 lung): 124 nM
TGI (NCI-H226 lung): 318 nM
GI50 (HOP-62 NSCLC): 51.3 nM
TGI (HOP-62 NSCLC): 173 nM
GI50 (NCI/ADR-RES ovarian): 7530 nM
TGI (NCI/ADR-RES ovarian): 25400 nM
GI50 (A549 NSCLC): 76.1 nM
TGI (A549 NSCLC): 334 nM
GI50 (K-562 leukemia): 90.4 nM
TGI (K-562 leukemia): 452 nM
